Reference: US20230167132A1, “FORMS AND COMPOSITIONS OF INHIBITORS OF PLASMA KALLIKREIN” (Takeda Pharmaceutical Company Limited, priority 2020, published 2023)
“And” between values parts separate entries of the source, which are not always exact repeats. Identical values can stand only once. “Also recorded” adds a separate entry of the source.

Columns and labels:
Assay type in all cases: physicochemical
[1] = Gravimetric vapour sorption (GVS) analysis; conditions: for XRPD post GVS analysis: change of solid form after GVS; for GVS hygroscopicity: classification in words
[2] = Storage for one week at 40° C./75% RH and 25° C./97% RH, XRPD
[3] = Intrinsic Dissolution Rate (IDR), Sirius inForm; conditions: for IDR Sector 1 average (pH 2.0) / IDR Sector 1 pH 2.0: pH 2.0, 37° C.; for IDR Sector 1 pH 2.0: individual runs; for sector 1 IDR compared to free base form Compound 1 Form 1 / other forms: pH 2.0, comparison in words; for XRPD Analysis Post Dissolution: solid form of disc after IDR analysis
Protocol: About 40 mg of the sample was compressed in a 6 mm disc recess, under 100 kg for 2 minutes, with greaseproof paper on the compression base, to form nondisintegrating discs. The discs were then plugged with a bung so that only one surface was exposed to the media during analysis and transferred to the Sirius inForm dissolution apparatus. Analysis was performed at 37° C. in 40 mL media (36 mL ISA water, 4 mL 0.1 M Acetate Phosphate Buffer). Dissolution data were collected over 4 pH sectors (pH 2.0, 5.5, 6.5, and 7.4) for a total of 2 hours—30 minutes per sector, with UV spectra collected every 30 seconds. A stir speed of 225 rpm was used with a 10 mm path length probe. The IDR was calculated based on the surface area of the 3/6/8 mm disc recess used (28.3 mm2 surface area). XRPD analysis was performed on all samples, both after compression of the material into the disc recess, and post dissolution analysis to observe any change in form. XRPD diffractograms were collected on the Bruker C2.

[4] = Competitive slurry / thermodynamic stability of solid forms; conditions: competitive slurries at 5 and 50° C. in selected solvents, XRPD
Protocol: To these, 40 vol (1 mL) selected solvents was added and the material slurried at 5° C. or 50° C. for 72 hours on a HEL polyblock (500 rpm stirring). Solids were subsequently isolated by filtration and dried under suction prior to analysis by XRPD. In all but one experiment, Form 1 was the sole detectable phase by XRPD obtained after 72 hours.
These were mixed, and then aliquots (20 mg) of this mixture were dispensed into HPLC vials and 90 vol (1.8 mL) selected solvents added. Samples were slurried using a Polar Bear with 500 rpm magnetic stirring at 5 and 50° C. After 24 hours, aliquots were removed and analysed by XRPD. Experiment numbers: 01-10.
120 mg of both Compound 6 Pattern 1 and Compound 6 Pattern 4 were dispensed into a 20 mL vial. These were mixed, and then aliquots (20 mg) of this mixture was dispensed into HPLC vials and 90 vol selected solvents were added. Samples were slurried using a Polar Bear with 500 rpm magnetic stirring. Aliquots were removed after four days and analyzed by XRPD.

[5] = one week (7 days), scaled-up / characterised material
[6] = one week, material isolated from salt/cocrystal screening experiments

Row | SMILES | XRPD post GVS analysis [1] | GVS hygroscopicity [1] | Storage 25° C./97% RH, XRPD [2, 5] | Storage 40° C./75% RH, XRPD [2, 5] | sector 1 IDR compared to free base form Compound 1 Form 1 / other forms [3] | GVS mass increase ([1]; between 0 and 90% RH) [%] | Storage 40° C./75% RH, XRPD [2, 6] | IDR Sector 1 average (pH 2.0) [3] [μg/min/cm^2] | other results
1 | O=C(NCc1ncn2ccc(Cl)c(F)c12)c1cn(Cc2cn3cc(C4CC4)ccc3n2)nn1.O=C(O)C(=O)O [Compound 6 Pattern 4] | unchanged | slightly hygroscopic | unchanged by XRPD | unchanged by XRPD | increased sector 1 IDR |  |  |  | GVS mass loss ([1]; between 0 and 90% RH): 0.66%; IDR Sector 1 average (pH 2.0) ([3]; listed as Oxalate Pattern 4): 674.7 μg/min/cm^2; IDR Sector 1 pH 2.0 ([3]; listed as Oxalate Pattern 4): 692.8 μg/min/cm^2 and 656.6 μg/min/cm^2; XRPD Analysis Post Dissolution ([3]; listed as Oxalate Pattern 4): Partial conversion to Compound 1; thermodynamic stability relative to other solid forms [4]: more thermodynamically stable of the two solvent-free oxalate salts; also recorded: more thermodynamically stable than Compound 6 Pattern 1; thermodynamic stability relative to other solid forms ([4]; listed as Oxalate Pattern 4): More thermodynamically stable
2 | O=C(NCc1ncn2ccc(Cl)c(F)c12)c1cn(Cc2cn3cc(C4CC4)ccc3n2)nn1.O=C(O)C(=O)O [Compound 6 Pattern 1] | no observed change | slightly hygroscopic | unchanged by XRPD | unchanged by XRPD | increased sector 1 IDR | 0.6 | slightly changed | 866.8 | IDR Sector 1 average (pH 2.0) ([3]; listed as Oxalate Pattern 1): 866.8 μg/min/cm^2; IDR Sector 1 pH 2.0 ([3]; listed as Oxalate Pattern 1): 895.9 μg/min/cm^2 and 837.7 μg/min/cm^2; XRPD Analysis Post Dissolution ([3]; listed as Oxalate Pattern 1): Partial conversion to Compound 1; thermodynamic stability relative to other solid forms ([4]; listed as Oxalate Pattern 1): Less thermodynamically stable
3 | O=C(NCc1ncn2ccc(Cl)c(F)c12)c1cn(Cc2cn3cc(C4CC4)ccc3n2)nn1.O=C(O)C[C@H](O)C(=O)O [Compound 3] | no observed change |  | unchanged by XRPD | unchanged by XRPD |  | 0.22 | Slight changes | 1791 | GVS hygroscopicity ([1]; listed as Compound 3 Pattern 1): slightly hygroscopic; GVS hygroscopicity ([1]; listed as L-malate): reduced hygroscopicity; stability under storage ([2]; summary of scaled-up solid forms, conditions not restated): stable under storage; IDR Sector 1 pH 2.0 ([3]; listed as L-malate Pattern 1): 1569 μg/min/cm^2 and 2013 μg/min/cm^2; sector 1 IDR compared to free base form Compound 1 Form 1 / other forms ([3]; listed as Compound 3 Form 1): highest IDR; sector 1 IDR compared to free base form Compound 1 Form 1 / other forms ([3]; listed as Compound 3 Pattern 1): increased sector 1 IDR; XRPD Analysis Post Dissolution ([3]; listed as Compound 3 Pattern 1): additional peaks observed in XRPD; XRPD Analysis Post Dissolution ([3]; listed as L-malate Pattern 1): Additional peaks observed
